ChEMBL document CHEMBL4813950, “Comparing the efficacy and selectivity of Ck2 inhibitors. A phosphoproteomics approach” (Eur J Med Chem, 2021)

What was measured:
Assay type in all cases: cell-based
[1] = biological target: SWI/SNF-related matrix-associated actin-dependent regulator of chromatin subfamily A containing DEAD/H box 1 (Mus musculus) (UniProt Q04692); experiment: Inhibition of Smarcad1 in mouse C2C12 cells assessed as reduction in phospho-sites occupancy at 4 uM after 5 hrs by SILAC based LC-MS/MS analysis relative to control
[2] = biological target: Zinc finger and BTB domain-containing protein 7A (Mus musculus) (UniProt O88939); experiment: Inhibition of Zbtb7a in mouse C2C12 cells assessed as reduction in phospho-sites occupancy at 4 uM after 5 hrs by SILAC based LC-MS/MS analysis relative to control
[3] = biological target: DNA replication licensing factor MCM2 (Mus musculus) (UniProt P97310); experiment: Inhibition of Mcm2 in mouse C2C12 cells assessed as reduction in phospho-sites occupancy at 4 uM after 5 hrs by SILAC based LC-MS/MS analysis relative to control
Striatin (Mus musculus) = Striatin (Mus musculus) (UniProt O55106); experiment: Inhibition of Stria-tin in mouse C2C12 cells assessed as reduction in phospho-sites occupancy at 4 uM after 5 hrs by SILAC based LC-MS/MS analysis relative to control
[4] = biological target: Sequestosome-1 (Mus musculus) (UniProt Q64337); experiment: Inhibition of Sequestosome-1 in mouse C2C12 cells assessed as reduction in phospho-sites occupancy at 4 uM after 5 hrs by SILAC based LC-MS/MS analysis relative to control
[5] = biological target: Rho GTPase-activating protein 35 (Mus musculus) (UniProt Q91YM2); experiment: Inhibition of Arhgap35 in mouse C2C12 cells assessed as reduction in phospho-sites occupancy at 4 uM after 5 hrs by SILAC based LC-MS/MS analysis relative to control
[6] = biological target: Acetyl-CoA carboxylase 1 (Mus musculus) (UniProt Q5SWU9); experiment: Inhibition of Acetyl-CoA carboxylase 1 in mouse C2C12 cells assessed as reduction in phospho-sites occupancy at 4 uM after 5 hrs by SILAC based LC-MS/MS analysis relative to control
[7] = biological target: 1-phosphatidylinositol 4,5-bisphosphate phosphodiesterase delta-3 (Mus musculus) (UniProt Q8K2J0); experiment: Inhibition of Plcd3 in mouse C2C12 cells assessed as reduction in phospho-sites occupancy at 4 uM after 5 hrs by SILAC based LC-MS/MS analysis relative to control
[8] = biological target: Unconventional myosin-XVIIIa (Mus musculus) (UniProt Q9JMH9); experiment: Inhibition of Unconventional myosin-18a in mouse C2C12 cells assessed as reduction in phospho-sites occupancy at 4 uM after 5 hrs by SILAC based LC-MS/MS analysis relative to control
Chain of Unconventional myosin-XVIIIa (Mus musculus) (Q9JMH9 whole entry): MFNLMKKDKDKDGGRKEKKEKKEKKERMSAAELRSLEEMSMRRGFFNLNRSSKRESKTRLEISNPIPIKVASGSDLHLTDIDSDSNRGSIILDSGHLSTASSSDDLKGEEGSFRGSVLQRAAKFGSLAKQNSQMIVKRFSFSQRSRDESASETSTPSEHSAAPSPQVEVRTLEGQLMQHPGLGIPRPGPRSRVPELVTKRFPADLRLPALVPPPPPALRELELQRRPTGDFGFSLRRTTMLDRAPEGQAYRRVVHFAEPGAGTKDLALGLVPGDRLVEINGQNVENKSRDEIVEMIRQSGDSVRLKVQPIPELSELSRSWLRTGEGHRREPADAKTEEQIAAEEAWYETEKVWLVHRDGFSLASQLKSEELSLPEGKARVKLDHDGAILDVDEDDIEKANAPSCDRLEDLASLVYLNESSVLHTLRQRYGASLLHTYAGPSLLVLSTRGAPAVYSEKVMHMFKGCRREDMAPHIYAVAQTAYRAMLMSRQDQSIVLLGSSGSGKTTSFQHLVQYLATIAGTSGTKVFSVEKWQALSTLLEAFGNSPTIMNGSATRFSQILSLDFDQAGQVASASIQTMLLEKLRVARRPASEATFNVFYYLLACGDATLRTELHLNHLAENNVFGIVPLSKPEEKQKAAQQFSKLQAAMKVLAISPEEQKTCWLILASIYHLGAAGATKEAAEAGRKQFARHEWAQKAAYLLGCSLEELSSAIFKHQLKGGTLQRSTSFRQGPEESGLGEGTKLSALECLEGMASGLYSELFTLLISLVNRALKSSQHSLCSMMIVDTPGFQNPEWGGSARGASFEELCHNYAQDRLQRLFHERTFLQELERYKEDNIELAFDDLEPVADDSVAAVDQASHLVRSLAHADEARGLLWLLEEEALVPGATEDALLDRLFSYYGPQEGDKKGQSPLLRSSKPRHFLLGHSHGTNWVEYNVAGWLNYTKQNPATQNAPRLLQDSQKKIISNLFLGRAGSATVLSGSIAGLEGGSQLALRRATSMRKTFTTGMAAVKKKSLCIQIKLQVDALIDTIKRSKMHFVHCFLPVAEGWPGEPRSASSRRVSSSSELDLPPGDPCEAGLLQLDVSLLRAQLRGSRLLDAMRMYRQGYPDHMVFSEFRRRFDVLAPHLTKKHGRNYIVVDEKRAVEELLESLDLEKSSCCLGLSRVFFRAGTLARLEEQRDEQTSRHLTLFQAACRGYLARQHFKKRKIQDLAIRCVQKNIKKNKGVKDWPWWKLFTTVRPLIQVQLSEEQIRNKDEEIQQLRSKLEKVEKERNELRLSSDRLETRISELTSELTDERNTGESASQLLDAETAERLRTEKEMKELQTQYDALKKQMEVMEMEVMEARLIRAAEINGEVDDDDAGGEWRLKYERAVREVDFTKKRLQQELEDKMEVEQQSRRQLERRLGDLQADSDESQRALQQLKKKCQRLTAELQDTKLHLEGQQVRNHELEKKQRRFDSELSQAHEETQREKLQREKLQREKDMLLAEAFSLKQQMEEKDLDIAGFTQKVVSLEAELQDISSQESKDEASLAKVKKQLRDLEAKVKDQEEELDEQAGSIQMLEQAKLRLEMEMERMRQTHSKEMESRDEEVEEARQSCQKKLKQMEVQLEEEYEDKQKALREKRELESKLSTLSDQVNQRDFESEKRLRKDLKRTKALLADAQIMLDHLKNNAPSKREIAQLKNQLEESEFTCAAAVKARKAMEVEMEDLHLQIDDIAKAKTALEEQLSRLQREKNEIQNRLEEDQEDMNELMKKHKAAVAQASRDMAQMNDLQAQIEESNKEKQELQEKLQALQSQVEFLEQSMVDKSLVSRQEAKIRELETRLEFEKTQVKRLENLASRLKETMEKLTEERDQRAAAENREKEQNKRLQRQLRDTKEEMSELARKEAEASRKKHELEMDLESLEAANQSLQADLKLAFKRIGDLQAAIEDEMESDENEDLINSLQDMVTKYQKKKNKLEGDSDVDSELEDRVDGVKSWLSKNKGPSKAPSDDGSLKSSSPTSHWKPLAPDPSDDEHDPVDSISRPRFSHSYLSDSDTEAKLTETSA

Chain of Striatin (Mus musculus) (O55106 whole entry): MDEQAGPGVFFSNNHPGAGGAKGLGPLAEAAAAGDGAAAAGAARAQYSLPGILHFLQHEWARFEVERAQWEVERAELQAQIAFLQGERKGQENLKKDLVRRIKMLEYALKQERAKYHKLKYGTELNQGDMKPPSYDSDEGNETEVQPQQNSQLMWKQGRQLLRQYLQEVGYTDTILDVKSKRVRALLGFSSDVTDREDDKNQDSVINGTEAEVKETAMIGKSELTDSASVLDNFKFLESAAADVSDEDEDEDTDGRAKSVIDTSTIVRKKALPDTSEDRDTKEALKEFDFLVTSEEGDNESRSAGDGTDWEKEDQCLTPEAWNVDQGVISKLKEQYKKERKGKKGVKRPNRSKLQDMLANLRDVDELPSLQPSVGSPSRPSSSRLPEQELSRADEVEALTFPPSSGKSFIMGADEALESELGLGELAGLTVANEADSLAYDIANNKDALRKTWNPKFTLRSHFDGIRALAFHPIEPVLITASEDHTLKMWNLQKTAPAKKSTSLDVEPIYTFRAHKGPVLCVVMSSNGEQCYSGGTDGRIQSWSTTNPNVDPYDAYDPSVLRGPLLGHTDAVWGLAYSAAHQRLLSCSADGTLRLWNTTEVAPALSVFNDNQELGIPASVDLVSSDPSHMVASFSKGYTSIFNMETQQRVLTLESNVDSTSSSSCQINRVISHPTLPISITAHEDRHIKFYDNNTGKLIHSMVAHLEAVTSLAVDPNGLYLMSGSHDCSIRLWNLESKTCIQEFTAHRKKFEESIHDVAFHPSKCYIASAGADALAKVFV
Chain of DNA replication licensing factor MCM2 (Mus musculus) (P97310 whole entry): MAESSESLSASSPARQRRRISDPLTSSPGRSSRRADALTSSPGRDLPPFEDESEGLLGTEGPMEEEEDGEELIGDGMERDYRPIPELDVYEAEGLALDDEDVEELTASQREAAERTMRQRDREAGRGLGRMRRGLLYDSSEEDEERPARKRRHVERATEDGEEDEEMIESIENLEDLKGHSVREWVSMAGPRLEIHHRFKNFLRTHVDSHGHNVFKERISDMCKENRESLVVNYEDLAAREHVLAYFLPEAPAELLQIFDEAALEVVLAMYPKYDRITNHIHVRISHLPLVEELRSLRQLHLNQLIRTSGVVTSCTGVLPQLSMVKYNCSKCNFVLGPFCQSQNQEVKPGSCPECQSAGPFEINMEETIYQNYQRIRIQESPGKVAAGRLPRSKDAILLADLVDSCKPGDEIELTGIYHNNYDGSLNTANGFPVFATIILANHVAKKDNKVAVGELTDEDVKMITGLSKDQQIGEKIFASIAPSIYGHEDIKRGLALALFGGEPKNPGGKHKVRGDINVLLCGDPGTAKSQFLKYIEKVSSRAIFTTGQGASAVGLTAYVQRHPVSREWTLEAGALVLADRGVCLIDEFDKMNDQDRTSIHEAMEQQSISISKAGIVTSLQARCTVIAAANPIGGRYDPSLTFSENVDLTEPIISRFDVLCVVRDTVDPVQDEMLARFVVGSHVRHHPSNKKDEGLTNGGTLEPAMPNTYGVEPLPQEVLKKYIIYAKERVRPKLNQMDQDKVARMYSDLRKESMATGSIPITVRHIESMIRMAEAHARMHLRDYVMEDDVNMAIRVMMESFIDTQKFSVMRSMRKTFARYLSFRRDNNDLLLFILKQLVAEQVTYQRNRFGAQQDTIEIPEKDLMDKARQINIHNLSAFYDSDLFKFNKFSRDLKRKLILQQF
Chain of 1-phosphatidylinositol 4,5-bisphosphate phosphodiesterase delta-3 (Mus musculus) (Q8K2J0 whole entry): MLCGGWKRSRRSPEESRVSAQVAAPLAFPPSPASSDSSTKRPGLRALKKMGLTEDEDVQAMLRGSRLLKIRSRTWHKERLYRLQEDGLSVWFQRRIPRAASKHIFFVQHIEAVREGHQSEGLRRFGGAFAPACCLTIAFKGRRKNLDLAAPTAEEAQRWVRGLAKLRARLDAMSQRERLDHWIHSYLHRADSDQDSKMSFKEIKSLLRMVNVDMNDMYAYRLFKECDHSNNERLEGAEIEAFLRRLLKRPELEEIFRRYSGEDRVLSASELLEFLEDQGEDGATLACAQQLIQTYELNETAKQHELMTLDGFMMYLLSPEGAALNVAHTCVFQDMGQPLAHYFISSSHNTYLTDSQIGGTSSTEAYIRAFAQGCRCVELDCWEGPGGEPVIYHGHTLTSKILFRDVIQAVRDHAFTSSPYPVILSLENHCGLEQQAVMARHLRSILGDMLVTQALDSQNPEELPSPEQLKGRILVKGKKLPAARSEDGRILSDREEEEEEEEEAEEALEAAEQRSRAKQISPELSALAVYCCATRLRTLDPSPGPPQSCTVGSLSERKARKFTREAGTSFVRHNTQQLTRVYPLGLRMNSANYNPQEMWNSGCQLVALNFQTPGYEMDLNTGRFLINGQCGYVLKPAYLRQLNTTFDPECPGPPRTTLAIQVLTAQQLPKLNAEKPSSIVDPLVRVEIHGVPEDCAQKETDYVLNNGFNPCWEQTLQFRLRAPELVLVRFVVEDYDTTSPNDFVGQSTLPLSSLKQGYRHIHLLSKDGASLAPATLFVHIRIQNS
Chain of Zinc finger and BTB domain-containing protein 7A (Mus musculus) (O88939 whole entry, the tested form may be a part): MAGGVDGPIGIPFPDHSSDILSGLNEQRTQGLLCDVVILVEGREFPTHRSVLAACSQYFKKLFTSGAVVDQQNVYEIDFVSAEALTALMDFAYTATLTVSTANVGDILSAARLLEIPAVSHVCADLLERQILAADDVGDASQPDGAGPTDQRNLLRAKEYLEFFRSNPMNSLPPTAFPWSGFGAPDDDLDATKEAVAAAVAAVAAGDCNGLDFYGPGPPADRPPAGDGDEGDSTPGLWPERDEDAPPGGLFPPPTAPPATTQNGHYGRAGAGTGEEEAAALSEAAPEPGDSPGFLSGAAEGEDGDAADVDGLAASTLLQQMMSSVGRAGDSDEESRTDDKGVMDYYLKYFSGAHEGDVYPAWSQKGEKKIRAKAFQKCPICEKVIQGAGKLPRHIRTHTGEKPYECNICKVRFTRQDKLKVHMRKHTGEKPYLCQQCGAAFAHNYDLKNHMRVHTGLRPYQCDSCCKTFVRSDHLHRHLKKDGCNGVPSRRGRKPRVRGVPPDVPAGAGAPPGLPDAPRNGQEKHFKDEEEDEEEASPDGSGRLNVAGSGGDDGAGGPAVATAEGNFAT

- fold change (FC) [1]: 1.64
- fold change (FC) [2]: 1.89
- fold change (FC) [3]: 2.12
- fold change (FC) (Striatin (Mus musculus)): 2.25
- fold change (FC) [4]: 2.35
- fold change (FC) [5]: 2.58
- fold change (FC) [6]: 2.73
- fold change (FC) [7]: 3.31
- fold change (FC) [8]: 5.23
SMILES: COc1cc(/C=N/n2c(SC)nnc2-c2ccccc2)c(Br)cc1O
